Test [1] concerns the target T1, MDM2 (Homo sapiens, UniProt Q00987). Description: MDM2 binding screen of Libraries 3 and 4: displacement of fluorescent probe F-M8 at 750 nM macrocycle. Particulars: 750 nM macrocycle; crude reaction; probe F-M8. In a few lines:
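Competition with nutlin-3a was run using the fluorescein conjugate. Library members came from scaffolds reacted 6 h at room temperature with carboxylic acids (20 equiv.), HBTU and DABCO in DMSO. Quenching was overnight in Tris-Cl pH 7.4 buffer with 0.01% Tween20.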

The target of test [2] is T1, MDM2. The test can be described thus: Competition binding of M10 and nutlin-3a (F-M10 or FP53 probe displacement from MDM2, FP). Particulars: for F-M10 displacement (values are anisotropy): F-M10 macrocycle probe; for F-M10 displacement (values are anisotropy) / FP53 displacement (values are anisotropy): duplicates -1/-2; for FP53 displacement (values are anisotropy): FP53 linear peptide probe. As to the method:
With the fluorescein conjugate, we also performed a competition experiment with nutlin-3a that binds to a defined hydrophobic pocket of MDM2[34] and is a precursor of nutlin-based clinical candidates.
Supplementary Figure 13. Studying the binding site of M10 by competition binding
by fluorescence polarization. The displacement was measured in two independent experiments
The displacement was measured in two

Where “and” joins values, the source holds several entries; their conditions need not be identical. Equal values may be shown once.

T1 sequence (Q00987 whole entry): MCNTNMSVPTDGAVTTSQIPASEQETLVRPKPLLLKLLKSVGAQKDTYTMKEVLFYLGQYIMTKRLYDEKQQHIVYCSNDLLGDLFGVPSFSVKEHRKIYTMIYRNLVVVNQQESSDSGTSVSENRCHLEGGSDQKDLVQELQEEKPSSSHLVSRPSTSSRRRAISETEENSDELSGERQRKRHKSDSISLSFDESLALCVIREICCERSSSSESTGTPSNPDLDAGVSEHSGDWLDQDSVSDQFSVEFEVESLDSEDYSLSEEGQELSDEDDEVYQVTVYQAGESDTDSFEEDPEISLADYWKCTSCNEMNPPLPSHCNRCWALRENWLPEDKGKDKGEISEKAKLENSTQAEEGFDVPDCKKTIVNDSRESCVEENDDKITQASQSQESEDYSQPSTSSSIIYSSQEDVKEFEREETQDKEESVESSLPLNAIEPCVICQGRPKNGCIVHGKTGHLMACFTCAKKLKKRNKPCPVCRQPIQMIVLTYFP

Consider `O=C(/C=C/c1ccc2c(c1)OCO2)NC[C@@H]1NC(=O)[C@H]2CCCN(C2)C(=O)CCSSCCNC(=O)[C@H](Cc2c[nH]c3ccccc23)NC1=O` [M10], for which the “displacement of fluorescent probe from MDM2” value on MDM2 [1] is 84%. Also, the “F-M10 displacement (values are anisotropy)” value (shortened to “F-M10 displacement”) was 23 and 19 at MDM2 [2] (Log[Inhibitor] M -4.0); 19 and 11 on MDM2 [2] (Log[Inhibitor] M -4.3); 18 and 15 on MDM2 [2] (Log[Inhibitor] M -4.6); 18 and 10 at MDM2 [2] (Log[Inhibitor] M -4.9); 14 and 12 at MDM2 [2] (Log[Inhibitor] M -5.2); 15 and 12 at MDM2 [2] (Log[Inhibitor] M -5.5). Moreover, the “F-M10 displacement” value is 18 and 9 on MDM2 [2] (Log[Inhibitor] M -5.8); 17 and 10 at MDM2 [2] (Log[Inhibitor] M -6.1); 20 and 15 at MDM2 [2] (Log[Inhibitor] M -6.4); 24 and 19 on MDM2 [2] (Log[Inhibitor] M -6.7); 30 and 21 at MDM2 [2] (Log[Inhibitor] M -7.0); 40 and 26 on MDM2 [2] (Log[Inhibitor] M -7.3). In addition, the “F-M10 displacement” value was 46 and 32 on MDM2 [2] (Log[Inhibitor] M -7.6); 52 and 42 on MDM2 [2] (Log[Inhibitor] M -7.9); 57 and 39 on MDM2 [2] (Log[Inhibitor] M -8.2); 57 and 42 at MDM2 [2] (Log[Inhibitor] M -8.5). Further, the “FP53 displacement (values are anisotropy)” value (“FP53 displacement” for short) at MDM2 [2] (Log[Inhibitor] M -4.0) was 35 and 39; at MDM2 [2] (Log[Inhibitor] M -4.3), 34 and 40; at MDM2 [2] (Log[Inhibitor] M -4.6) it was 35 and 36; on MDM2 [2] (Log[Inhibitor] M -4.9) it was 31 and 36; on MDM2 [2] (Log[Inhibitor] M -5.2) it was 32 and 39; on MDM2 [2] (Log[Inhibitor] M -5.5) it was 31 and 40. Further, the “FP53 displacement” value at MDM2 [2] (Log[Inhibitor] M -5.8) was 30 and 37; at MDM2 [2] (Log[Inhibitor] M -6.1) it was 32 and 36; on MDM2 [2] (Log[Inhibitor] M -6.4), 31 and 40; on MDM2 [2] (Log[Inhibitor] M -6.7) it was 42 and 51; at MDM2 [2] (Log[Inhibitor] M -7.0) it was 51 and 55; on MDM2 [2] (Log[Inhibitor] M -7.3), 54 and 63. Moreover, the “FP53 displacement” value at MDM2 [2] (Log[Inhibitor] M -7.6) was 60 and 67; at MDM2 [2] (Log[Inhibitor] M -7.9) it was 60 and 65; at MDM2 [2] (Log[Inhibitor] M -8.2) it was 66 and 67; at MDM2 [2] (Log[Inhibitor] M -8.5), 63 and 67.

For Nutlin, the “F-M10 displacement” value was 71 and 53 at MDM2 [2] (Log[Inhibitor] M -4.0); 66 and 52 on MDM2 [2] (Log[Inhibitor] M -4.3); 66 and 55 at MDM2 [2] (Log[Inhibitor] M -4.6); 62 and 56 at MDM2 [2] (Log[Inhibitor] M -4.9); 69 and 55 at MDM2 [2] (Log[Inhibitor] M -5.2); 63 and 51 at MDM2 [2] (Log[Inhibitor] M -5.5). Also, the “F-M10 displacement” value on MDM2 [2] (Log[Inhibitor] M -5.8) is 63 and 55; on MDM2 [2] (Log[Inhibitor] M -6.1), 68 and 53; on MDM2 [2] (Log[Inhibitor] M -6.4), 65 and 54; at MDM2 [2] (Log[Inhibitor] M -6.7), 64 and 54; at MDM2 [2] (Log[Inhibitor] M -7.0), 64 and 51; on MDM2 [2] (Log[Inhibitor] M -7.3) it was 64 and 50. Moreover, the “F-M10 displacement” value is 67 and 53 at MDM2 [2] (Log[Inhibitor] M -7.6); 61 and 50 on MDM2 [2] (Log[Inhibitor] M -7.9); 66 and 47 at MDM2 [2] (Log[Inhibitor] M -8.2); 66 and 47 at MDM2 [2] (Log[Inhibitor] M -8.5). In addition, the “FP53 displacement” value was 13 and 15 on MDM2 [2] (Log[Inhibitor] M -4.0); 21 and 16 at MDM2 [2] (Log[Inhibitor] M -4.3); 13 and 14 at MDM2 [2] (Log[Inhibitor] M -4.6); 14 and 13 on MDM2 [2] (Log[Inhibitor] M -4.9); 15 and 11 on MDM2 [2] (Log[Inhibitor] M -5.2); 15 and 18 at MDM2 [2] (Log[Inhibitor] M -5.5). For the same compound, the “FP53 displacement” value was 15 and 14 at MDM2 [2] (Log[Inhibitor] M -5.8); 19 and 23 at MDM2 [2] (Log[Inhibitor] M -6.1); 30 and 27 at MDM2 [2] (Log[Inhibitor] M -6.4); 43 and 49 on MDM2 [2] (Log[Inhibitor] M -6.7); 56 and 61 at MDM2 [2] (Log[Inhibitor] M -7.0); 64 and 66 on MDM2 [2] (Log[Inhibitor] M -7.3). Further, the “FP53 displacement” value was 64 and 68 on MDM2 [2] (Log[Inhibitor] M -7.6); 66 and 67 on MDM2 [2] (Log[Inhibitor] M -7.9); 65 at MDM2 [2] (Log[Inhibitor] M -8.2); 69 and 66 at MDM2 [2] (Log[Inhibitor] M -8.5).

Take nutlin-3a [reference compound]: on MDM2 [2] (FP competition experiment), the “competition with fluorescein conjugate of M10 for MDM2 binding” value is given as “did not compete”.

(Values after publication PMC9250534, “Synthesis and direct assay of large macrocycle diversities by combinatorial late-stage modification at picomole scale” (Nature Communications, 2022).)
